Source: patent US20250197382A1, “KIF18A INHIBITOR” (WIGEN BIOMEDICINE TECHNOLOGY (SHANGHAI) CO., LTD., priority 2022, published 2025)

These compounds were tested against Recombinant human KIF18A (1-467His-tagged) protein (Homo sapiens (Human), UniProt Q8NI77) (assay: KIF18A enzyme assay (microtubule-stimulated ATPase activity, ADP-Glo)). Settings: 30 nM KIF18A, ATP 75 μM, read-out: inhibitory activity against KIF18A IC50.
Type: biochemical
Method in brief: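 Baculovirus-expressed human KIF18A (1-467, His-tagged; 30 nM) preincubated 15 min at room temperature with compound (22-point 2-fold series) in pH 7.5 Tris buffer containing 30 μg/mL pig microtubules and 1 μM paclitaxel.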

Sequence of Recombinant human KIF18A (1-467His-tagged) protein (Q8NI77 1-467): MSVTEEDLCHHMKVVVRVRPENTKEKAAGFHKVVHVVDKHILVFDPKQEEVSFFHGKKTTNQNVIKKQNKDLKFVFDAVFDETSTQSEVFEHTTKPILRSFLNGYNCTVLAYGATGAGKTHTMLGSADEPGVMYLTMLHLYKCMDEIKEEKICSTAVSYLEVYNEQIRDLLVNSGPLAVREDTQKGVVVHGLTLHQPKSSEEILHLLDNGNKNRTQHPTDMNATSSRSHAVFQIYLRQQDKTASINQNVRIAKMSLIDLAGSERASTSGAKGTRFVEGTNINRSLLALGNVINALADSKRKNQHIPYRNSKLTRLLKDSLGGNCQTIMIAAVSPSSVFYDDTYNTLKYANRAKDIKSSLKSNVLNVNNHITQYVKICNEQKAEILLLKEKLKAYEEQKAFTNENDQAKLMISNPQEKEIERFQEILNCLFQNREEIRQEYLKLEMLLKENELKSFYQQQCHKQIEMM
Sequence of Recombinant human KIF18A (1-467His-tagged) protein (P02550 whole entry partner): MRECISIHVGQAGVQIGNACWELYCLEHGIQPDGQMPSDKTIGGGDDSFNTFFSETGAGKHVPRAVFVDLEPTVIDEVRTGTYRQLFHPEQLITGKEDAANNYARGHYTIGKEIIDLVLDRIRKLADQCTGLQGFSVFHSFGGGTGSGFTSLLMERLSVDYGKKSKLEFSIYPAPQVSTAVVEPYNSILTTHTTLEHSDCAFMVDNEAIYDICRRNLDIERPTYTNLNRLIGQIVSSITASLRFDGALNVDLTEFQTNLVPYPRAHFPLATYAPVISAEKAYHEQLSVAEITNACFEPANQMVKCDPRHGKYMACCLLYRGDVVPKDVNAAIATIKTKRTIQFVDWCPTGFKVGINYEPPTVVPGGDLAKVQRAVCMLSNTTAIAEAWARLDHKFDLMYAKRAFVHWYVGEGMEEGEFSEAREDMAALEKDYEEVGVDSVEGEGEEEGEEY
Sequence of Recombinant human KIF18A (1-467His-tagged) protein (P02554 whole entry partner): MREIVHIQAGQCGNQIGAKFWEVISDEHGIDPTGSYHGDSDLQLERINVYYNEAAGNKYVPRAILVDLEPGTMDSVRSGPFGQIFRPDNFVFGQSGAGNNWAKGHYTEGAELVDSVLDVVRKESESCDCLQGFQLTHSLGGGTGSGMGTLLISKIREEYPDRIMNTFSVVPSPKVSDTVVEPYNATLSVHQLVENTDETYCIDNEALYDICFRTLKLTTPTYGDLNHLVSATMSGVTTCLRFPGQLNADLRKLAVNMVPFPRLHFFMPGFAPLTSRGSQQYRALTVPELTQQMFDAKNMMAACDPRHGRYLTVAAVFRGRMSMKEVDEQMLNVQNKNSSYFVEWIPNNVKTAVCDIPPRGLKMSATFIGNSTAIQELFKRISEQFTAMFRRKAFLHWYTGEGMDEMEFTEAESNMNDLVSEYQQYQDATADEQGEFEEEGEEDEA

Row | IC50 [nM] | SMILES
1 | ≤ 100 | Cn1ccc2cc(NC(=O)c3ccc(NS(=O)(=O)CCO)cc3N3CCC4(CC3)CC4)nc(OC3CCC3)c21 [Compound 455]
2 | ≤ 100 | C[C@@H]1CN(c2cc(C(=O)Nc3ccc(NS(=O)(=O)[C@@H](C)CO)cc3N3CCC4(CC3)CC4)cc3ccn(C)c23)CCO1 [Compound 431]
3 | ≤ 100 | Cn1ccc2cc(C(=O)Nc3ccc(S(=O)(=O)NCCO)cc3N3CCC4(CC3)CC4)nc(N3CCC(F)(F)CC3)c21 [Compound 497]
4 | ≤ 100 | C[C@H](CO)NS(=O)(=O)c1ccc(C(=O)Nc2cc3ccoc3c(N3CCC(F)(F)CC3)n2)c(N2CCC3(CC2)CC3)c1 [Compound 222]
5 | ≤ 100 | Cn1ccc2cc(NC(=O)c3ccc(S(=O)(=O)NCCO)cc3N3CCC4(CC3)CC4)cc(N3CC(F)(F)C3)c21 [Compound 404]
6 | ≤ 100 | CN1CCc2cc(C(=O)Nc3ccc(S(=O)(=O)NCCO)cc3N3CCC4(CC3)CC4)cc(N3CC(F)(F)C3)c21 [Compound 308]
7 | ≤ 100 | O=C(Nc1ccc(NS(=O)(=O)CCO)cc1N1CCC2(CC1)CC2)c1cc(OC2CCC2)c2occc2c1 [Compound 167]
8 | ≤ 100 | O=C(Nc1cc2ncsc2c(N2CCC(F)(F)CC2)n1)c1ccc(NS(=O)(=O)CCO)cc1N1CCC2(CC1)CC2 [Compound 516]
9 | ≤ 100 | O=C(Nc1ccc(NS(=O)(=O)CCO)cc1N1CCC2(CC1)CC2)c1cc2c(c(N3CC4CC4C3)c1)OCC2 (centres unmarked) [Compound 42]
10 | ≤ 100 | O=C(Nc1cc2c(c(N3CCC(F)(F)CC3)n1)OCCO2)c1ccc(NS(=O)(=O)CCO)cc1N1CCC2(CC1)CC2 [Compound 544]
11 | ≤ 100 | O=C(Nc1ccc(S(=O)(=O)NCCO)cc1N1CCC2(CC1)CC2)c1cc2c(c(N3CCC(F)(F)CC3)c1)OCCC2 [Compound 547]
12 | ≤ 100 | O=C(Nc1cc2c(c(OCCC(F)(F)F)n1)OCC2)c1ccc(S(=O)(=O)NCCO)cc1N1CCC2(CC1)CC2 [Compound 85]
13 | ≤ 100 | O=C(Nc1cc2ccoc2c(N2CCC3(CC3)C2)n1)c1ccc(S(=O)(=O)NCCO)cc1N1CCC2(CC1)CC2 [Compound 214]
14 | ≤ 100 | C[C@@H]1CN(c2cc(C(=O)Nc3ccc(NS(=O)(=O)CCO)cc3N3CCC4(CC3)CC4)cc3c2OCC3)CCO1 [Compound 34]
15 | ≤ 100 | Cn1ccc2cc(C(=O)Nc3ccc(NS(=O)(=O)CCO)cc3N3CCC4(CC3)CC4)cc(OC3CCC3)c21 [Compound 423]
16 | ≤ 100 | CN1CCc2cc(NC(=O)c3ccc(NS(=O)(=O)CCO)cc3N3CCC4(CC3)CC4)nc(N3CC4CC4C3)c21 (centres unmarked) [Compound 330]
17 | ≤ 100 | Cn1ccc2cc(NC(=O)c3ccc(S(=O)(=O)NCCO)cc3N3CCC4(CC3)CC4)nc(N3CCC(F)CC3)c21 [Compound 473]
18 | ≤ 100 | CN1CCc2cc(NC(=O)c3ccc(S(=O)(=O)NCCO)cc3N3CCC4(CC3)CC4)cc(N3CCC(C)(F)C3)c21 (centres unmarked) [Compound 280]
19 | ≤ 100 | CN1CCc2cc(C(=O)Nc3ccc(NS(=O)(=O)CCO)cc3N3CCC4(CC3)CC4)cc(N3CCC(F)(F)CC3)c21 [Compound 257]
20 | ≤ 100 | C[C@H](CO)NS(=O)(=O)c1ccc(NC(=O)c2cc3ccoc3c(N3CCC(F)(F)CC3)n2)c(N2CCC3(CC2)CC3)c1 [Compound 254]
21 | ≤ 100 | C[C@@H]1CN(c2cc(C(=O)Nc3ccc(NS(=O)(=O)CCO)cc3N3CCC4(CC3)CC4)cc3ccn(C)c23)CCO1 [Compound 418]

Row | IC50 [nM] | SMILES
22 | ≤ 100 | C[C@H]1CN(c2nc(C(=O)Nc3ccc(NS(=O)(=O)CCO)cc3N3CCC4(CC3)CC4)cc3ccn(C)c23)CCO1 [Compound 483]
23 | ≤ 100 | CN1CCc2cc(NC(=O)c3ccc(S(=O)(=O)NCCO)cc3N3CCC4(CC3)CC4)cc(N3CCOCC3)c21 [Compound 284]
24 | ≤ 100 | CN1CCc2cc(NC(=O)c3ccc(NS(=O)(=O)CCO)cc3N3CCC4(CC3)CC4)nc(N3CCC(C)(F)C3)c21 (centres unmarked) [Compound 328]
25 | ≤ 100 | Cn1ccc2cc(NC(=O)c3ccc(NS(=O)(=O)CCO)cc3N3CCC4(CC3)CC4)cc(N3CC(F)(F)C3)c21 [Compound 388]
26 | ≤ 100 | C[C@@H]1CN(c2nc(C(=O)Nc3ccc(NS(=O)(=O)[C@H](C)CO)cc3N3CCC4(CC3)CC4)cc3ccn(C)c23)CCO1 [Compound 496]
27 | ≤ 100 | C[C@@H]1CN(c2cc(NC(=O)c3ccc(NS(=O)(=O)[C@@H](C)CO)cc3N3CCC4(CC3)CC4)cc3c2N(C)CC3)CCO1 [Compound 271]
28 | ≤ 100 | O=C(Nc1ccc(NS(=O)(=O)CCO)cc1N1CCC2(CC1)CC2)c1cc2c(c(OC3CCC3)n1)OCC2 [Compound 103]
29 | ≤ 100 | CC1(F)CCN(c2nc(C(=O)Nc3ccc(NS(=O)(=O)CCO)cc3N3CCC4(CC3)CC4)cc3c2OCC3)C1 (centres unmarked) [Compound 104]
30 | ≤ 100 | O=C(Nc1cc2ccoc2c(N2CCC(F)CC2)n1)c1ccc(S(=O)(=O)NCCO)cc1N1CCC2(CC1)CC2 [Compound 217]
31 | ≤ 100 | CN1CCc2cc(NC(=O)c3ccc(NS(=O)(=O)CCO)cc3N3CCC4(CC3)CC4)nc(OC3CCC3)c21 [Compound 327]
32 | ≤ 100 | C[C@@H](CO)NS(=O)(=O)c1ccc(NC(=O)c2cc3ccn(C)c3c(N3CCC(F)(F)CC3)n2)c(N2CCC3(CC2)CC3)c1 [Compound 509]
33 | ≤ 100 | CC(C)(CO)Nc1cc(NC(=O)c2ccc(S(=O)(=O)NCCO)cc2N2CCC3(CC2)CC3)cc2c1OCC2 [Compound 27]
34 | ≤ 100 | C[C@@H]1CN(c2nc(C(=O)Nc3ccc(NS(=O)(=O)[C@@H](C)CO)cc3N3CCC4(CC3)CC4)cc3ccn(C)c23)CCO1 [Compound 495]
35 | ≤ 100 | C[C@@H](CO)S(=O)(=O)Nc1ccc(NC(=O)c2cc(N3CCC(F)(F)CC3)c3c(ccn3C)c2)c(N2CCC3(CC2)CC3)c1 [Compound 429]
36 | 100 to 500 | O=C(Nc1cc(N2CCC(F)(F)CC2)c2ccccc2c1)c1ccc(NS(=O)(=O)CCO)cc1N1CCC2(CC1)CC2 [Compound 529]
37 | ≤ 100 | C[C@H](CO)S(=O)(=O)Nc1ccc(C(=O)Nc2cc(N3CCC(F)(F)CC3)c3occc3c2)c(N2CCC3(CC2)CC3)c1 [Compound 142]
38 | ≤ 100 | C[C@H](CO)NS(=O)(=O)c1ccc(C(=O)Nc2cc(N3CCO[C@H](C)C3)c3c(ccn3C)c2)c(N2CCC3(CC2)CC3)c1 [Compound 416]
39 | ≤ 100 | C[C@@H]1CN(c2nc(NC(=O)c3ccc(NS(=O)(=O)[C@@H](C)CO)cc3N3CCC4(CC3)CC4)cc3ccoc23)CCO1 [Compound 207]
40 | ≤ 100 | CN1CCc2cc(NC(=O)c3ccc(S(=O)(=O)NCCO)cc3N3CCC4(CC3)CC4)nc(N3CCC(C)(F)C3)c21 (centres unmarked) [Compound 344]
41 | ≤ 100 | CC1(F)CCN(c2cc(NC(=O)c3ccc(S(=O)(=O)NCCO)cc3N3CCC4(CC3)CC4)cc3ccoc23)C1 (centres unmarked) [Compound 152]
42 | ≤ 100 | C[C@@H]1CN(c2nc(NC(=O)c3ccc(NS(=O)(=O)CCO)cc3N3CCC4(CC3)CC4)cc3ccn(C)c23)CCO1 [Compound 450]

Row | IC50 [nM] | SMILES
43 | ≤ 100 | C[C@@H]1CN(c2cc(C(=O)Nc3ccc(S(=O)(=O)N[C@@H](C)CO)cc3N3CCC4(CC3)CC4)cc3ccn(C)c23)CCO1 [Compound 447]
44 | ≤ 100 | C[C@@H]1CN(c2nc(C(=O)Nc3ccc(NS(=O)(=O)[C@H](C)CO)cc3N3CCC4(CC3)CC4)cc3c2OCC3)CCO1 [Compound 112]
45 | ≤ 100 | C[C@@H]1CN(c2nc(NC(=O)c3ccc(NS(=O)(=O)[C@@H](C)CO)cc3N3CCC4(CC3)CC4)cc3c2N(C)CC3)CCO1 [Compound 335]
46 | ≤ 100 | O=C(Nc1ccc(NS(=O)(=O)CCO)cc1N1CCC2(CC1)CC2)c1cc2c(c(N3CCOCC3)c1)OCC2 [Compound 44]
47 | ≤ 100 | C[C@@H]1CN(c2nc(NC(=O)c3ccc(S(=O)(=O)NCCO)cc3N3CCC4(CC3)CC4)cc3ccoc23)CCO1 [Compound 210]
48 | ≤ 100 | C[C@@H]1CN(c2nc(C(=O)Nc3ccc(NS(=O)(=O)[C@H](C)CO)cc3N3CCC4(CC3)CC4)cc3c2N(C)CC3)CCO1 [Compound 368]
49 | ≤ 100 | O=C(Nc1cc2c(c(N3CCC(F)CC3)c1)OCC2)c1ccc(S(=O)(=O)NCCO)cc1N1CCC2(CC1)CC2 [Compound 25]
50 | ≤ 100 | C[C@H](CO)NS(=O)(=O)c1ccc(NC(=O)c2cc3c(c(N4CCO[C@H](C)C4)n2)N(C)CC3)c(N2CCC3(CC2)CC3)c1 [Compound 384]
51 | ≤ 100 | O=C(Nc1ccc(S(=O)(=O)NCCO)cc1N1CCC2(CC1)CC2)c1cc2c(c(N3CCC(F)CC3)c1)OCC2 [Compound 57]
52 | ≤ 100 | O=C(Nc1cc2c(c(N3CCOCC3)n1)OCC2)c1ccc(S(=O)(=O)NCCO)cc1N1CCC2(CC1)CC2 [Compound 92]
53 | ≤ 100 | C[C@@H](CO)NS(=O)(=O)c1ccc(C(=O)Nc2cc3c(c(N4CCC(F)(F)CC4)n2)N(C)CC3)c(N2CCC3(CC2)CC3)c1 [Compound 349]
54 | ≤ 100 | CN1CCc2cc(NC(=O)c3ccc(NS(=O)(=O)CCO)cc3N3CCC4(CC3)CC4)nc(N3CCC(F)(F)CC3)c21 [Compound 321]
55 | ≤ 100 | C[C@H](CO)NS(=O)(=O)c1ccc(NC(=O)c2cc3c(c(N4CCC(F)(F)CC4)c2)OCC3)c(N2CCC3(CC2)CC3)c1 [Compound 62]
56 | ≤ 100 | O=C(Nc1ccc(NS(=O)(=O)CCO)cc1N1CCC2(CC1)CC2)c1cc2c(c(N3CCC(F)(F)CC3)c1)OCCC2 [Compound 545]
57 | ≤ 100 | CC(C)(CO)Nc1nc(C(=O)Nc2ccc(NS(=O)(=O)CCO)cc2N2CCC3(CC2)CC3)cc2c1OCC2 [Compound 107]
58 | ≤ 100 | CC1(F)CCN(c2cc(NC(=O)c3ccc(NS(=O)(=O)CCO)cc3N3CCC4(CC3)CC4)cc3c2OCC3)C1 (centres unmarked) [Compound 8]
59 | ≤ 100 | C[C@@H]1CN(c2nc(NC(=O)c3ccc(S(=O)(=O)N[C@@H](C)CO)cc3N3CCC4(CC3)CC4)cc3ccn(C)c23)CCO1 [Compound 479]
60 | ≤ 100 | CN1CCc2cc(NC(=O)c3ccc(S(=O)(=O)NCCO)cc3N3CCC4(CC3)CC4)nc(OC3CCC3)c21 [Compound 343]
61 | ≤ 100 | Cn1ccc2cc(C(=O)Nc3ccc(S(=O)(=O)NCCO)cc3N3CCC4(CC3)CC4)nc(N3CCC(F)CC3)c21 [Compound 505]
62 | ≤ 100 | CN1CCc2cc(C(=O)Nc3ccc(S(=O)(=O)NCCO)cc3N3CCC4(CC3)CC4)nc(N3CCC4(CC4)C3)c21 [Compound 374]
